In the supplement of paper PMC11208160:

Experiment: recombinant UMI read abundance after kanamycin selection (control-corrected) (log10(CPM+1)); higher = more efficient recombination; extreme values may be limits of the assay; sequences stand for … in AGTGCAGAGAAAATCGGCCAGTTTTCTCTGCCTGCAGTCCGCATGCCGTGGGACCCCTTGGGTTCTAACCTGTTGCCTAGATTTATGCAGCGGACTGCCTTTCTCCCAAAGTGATAAACCGG…AGGTTGGTTTCACT; site = the 11-nt donor
Outline: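 Values, expressed as log10(CPM+1), derive from recombinant UMI counts converted to CPM, averaged across replicates and scaled by control-derived factors. Plating was with IPTG (0.07 mM) plus kanamycin or unselected, two replicates each. The screen pooled donor and donor-binding-loop pairs for the IS621 bridge recombinase in Escherichia coli.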
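Also: IS621 bridge recombinase in Escherichia coli cells against a fixed T5 target plasmid.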

Sequence	recombinant UMI read abundance (log10)
TCAGTCACATGGACCGGTTTTCCCGGTAATCCGTATTTGAG (site TCAGTCACTCT)	0.702
TCAGTGACATGGACCGGTTTTCCCGGTAATCCGTATTTGCG (site TCAGAGACTCG)	0.0602
TCAGTGACATGGACCGGTTTTCCCGGTAATCCGTATTTGCG (site TCAGCGACTCG)	0.00331
TCAGTGACATGGACCGGTTTTCCCGGTAATCCGTATTTGCG (site TCAGGGACTCG)	0.00386
TCAGTGACATGGACCGGTTTTCCCGGTAATCCGTATTTGCG (site TCAGTGACTCG)	1.21
TCATACTCATGGACCGGTTTTCCCGGTAATCCGTATTTGCG (site TCATACTCTAG)	0
TCATACTCATGGACCGGTTTTCCCGGTAATCCGTATTTGCG (site TCATACTCTCG)	2.57
TCATACTCATGGACCGGTTTTCCCGGTAATCCGTATTTGCG (site TCATACTCTGG)	0.0107
TCATACTCATGGACCGGTTTTCCCGGTAATCCGTATTTGCG (site TCATACTCTTG)	2.1
TCATAGGCATGGACCGGTTTTCCCGGTAATCCGTATTTGAG (site TCATAGGCTCT)	1.46
TCATCTTCATGGACCGGTTTTCCCGGTAATCCGTATTTGGT (site TCATCTTCTAC)	0.467
TCATGACCATGGACCGGTTTTCCCGGTAATCCGTATTTGCC (site TCATGACCTGG)	0
TCATGACCATGGACCGGTTTTCCCGGTAATCCGTATTTGCG (site TCATGACCTCG)	0.00794
TCATGAGCATGGACCGGTTTTCCCGGTAATCCGTATTTGGG (site TAATGAGCTCC)	0.0178
TCATGAGCATGGACCGGTTTTCCCGGTAATCCGTATTTGGG (site TCATGAGCTCC)	0.0121
TCATGAGCATGGACCGGTTTTCCCGGTAATCCGTATTTGGG (site TGATGAGCTCC)	0.00797
TCATGAGCATGGACCGGTTTTCCCGGTAATCCGTATTTGGG (site TTATGAGCTCC)	0.00944
TCATGTCCATGGACCGGTTTTCCCGGTAATCCGTATTTGTG (site TCATGTCCTCA)	0
TCATTCTCATGGACCGGTTTTCCCGGTAATCCGTATTTGCA (site TCATACTCTTG)	1.25

Sequence	recombinant UMI read abundance (log10)
TCATTCTCATGGACCGGTTTTCCCGGTAATCCGTATTTGCA (site TCATCCTCTTG)	0
TCATTCTCATGGACCGGTTTTCCCGGTAATCCGTATTTGCA (site TCATGCTCTTG)	0.00845
TCATTCTCATGGACCGGTTTTCCCGGTAATCCGTATTTGCA (site TCATTCTCTTG)	1.41
TCCAAAGCATGGACCGGTTTTCCCGGTAATCCGTATTTGGA (site TCCAAAGCTTC)	0.0225
TCCAAGTCATGGACCGGTTTTCCCGGTAATCCGTATTTGCC (site TCCAAATCTGG)	0
TCCAAGTCATGGACCGGTTTTCCCGGTAATCCGTATTTGCC (site TCCAACTCTGG)	0
TCCAAGTCATGGACCGGTTTTCCCGGTAATCCGTATTTGCC (site TCCAAGTCTGG)	0
TCCAAGTCATGGACCGGTTTTCCCGGTAATCCGTATTTGCC (site TCCAATTCTGG)	0
TCCAATTCATGGACCGGTTTTCCCGGTAATCCGTATTTGAC (site TCCAATTCTGA)	0
TCCAATTCATGGACCGGTTTTCCCGGTAATCCGTATTTGAC (site TCCAATTCTGC)	0
TCCAATTCATGGACCGGTTTTCCCGGTAATCCGTATTTGAC (site TCCAATTCTGG)	0
TCCAATTCATGGACCGGTTTTCCCGGTAATCCGTATTTGAC (site TCCAATTCTGT)	0
TCCAATTCATGGACCGGTTTTCCCGGTAATCCGTATTTGCT (site TCCAATTCTAG)	0
TCCAATTCATGGACCGGTTTTCCCGGTAATCCGTATTTGCT (site TCCAATTCTCG)	0
TCCAATTCATGGACCGGTTTTCCCGGTAATCCGTATTTGCT (site TCCAATTCTGG)	0
TCCAATTCATGGACCGGTTTTCCCGGTAATCCGTATTTGCT (site TCCAATTCTTG)	0
TCCACCGCATGGACCGGTTTTCCCGGTAATCCGTATTTGGG (site TCCACCGCTCA)	0.0369
TCCACCGCATGGACCGGTTTTCCCGGTAATCCGTATTTGGG (site TCCACCGCTCC)	0.00928
